Assay results from patent US10239889B1, “Pentacyclic compound” (Eisai R&D Management Co., Ltd., priority 2017, dated 2019).

Experiments:
[1] = system: rat primary septal neuron culture; experiment: Measurement of acetylcholine (ACh) release in the rat primary septal neuron culture system in the presence of NGF; format: cell-based; details: rat primary septal neurons, with NGF, one day after compound addition, ACh by HPLC
Description: Measurement of acetylcholine (ACh) release in the rat primary septal neuron culture system in the presence of NGF
(1) Rat Primary Septal Neuron Culture
The septal area was isolated from Sprague-Dawley (SD) rats (Charles River Laboratories Japan, Inc.) at a fetal age of 18 days, and cultured.
Specifically, fetuses were aseptically removed from pregnant rats under isoflurane anesthesia. The brain was extracted from each fetus, and immersed in ice-cooled L-15 medium (11415-064, Thermo Fisher Scientific). The septal area was dissected from the extracted brain under a stereoscopic microscope. The dissected septal area was subjected to enzyme treatment in an enzyme solution containing 0.25% trypsin (15050-065, Thermo Fisher Scientific) and 0.01% DNase (D5025-150KU, Sigma) at 37° C. for 30 minutes, thereby dispersing the cells. In this case, the enzyme reaction was terminated by adding inactivated horse serum (26050-088, Thermo Fisher Scientific). The enzyme-treated solution was centrifuged at 1000 rpm for 3 minutes, and the supernatant was removed. A medium in an amount of 10 mL was added to the obtained cell mass. The medium used was Dulbecco's Modified Eagle's Medium (044-29765, WAKO) supplemented with N2 supplement (17502-048, Thermo Fisher Scientific), 1 mM sodium pyruvate (11360-070, Thermo Fisher Scientific), and Penicillin-Streptomycin (15140-1221, Thermo Fisher Scientific). The cells of the cell mass to which the medium was added were redispersed by gentle pipetting, and then centrifuged again at 1000 rpm for 3 minutes, and the supernatant was removed. The medium in an amount of 10 mL was added to the obtained cell mass, and the cell dispersion was filtered through a 40-μm nylon mesh (Cell Strainer) to remove the cell mass, thereby obtaining a neuronal cell suspension. The neuronal cell suspension was diluted with the medium, and 10% inactivated bovine serum (26140-079, Thermo Fisher Scientific) and 10% inactivated horse serum were added. Thereafter, 100 μL/well of the suspension was seeded in a 96-well plate (354461, CORNING) pre-coated with poly-D-lysine so that the initial culture density was 1.4×10^5 cells/cm^2. After the seeded cells were cultured under 5% CO2-95% air in a 37° C. incubator for 2 days, the entire medium was replaced with 120 μL of fresh medium, and the cells were subsequently cultured for 5 days.
On the 7th day of culture, compound was added in the following manner. A solution of the test compound in DMSO was diluted with the medium so that the concentration was 10 times higher than the final concentration. NGF (450-01, PEPRO TECH, INC.) was prepared at 0.3 ng/mL. These two solutions were added each in an amount of 15 μL/well, and the mixture was mixed well. The final DMSO concentration was 0.1% or less. Moreover, only DMSO and NGF were added to the control group.
(3) ACh Release Measurement
One day after compound addition, an amount of ACh release was measured by HPLC in the following manner. A warmed buffer was added at 100 μL/well to the well after the medium was eliminated, and the buffer was immediately removed. Thereafter, a buffer to which 10 μm choline, 10 μm physostigmine, and 6 mM KCl were added was added at 120 μL/well. The buffer was prepared by adding 125 mM NaCl, 25 mM 4-(2-hydroxyethyl)-1-piperazineethanesulfonic acid, 1.2 mM KH2PO4, 1.2 mM MgSO4, 2.2 mM CaCl2 (2H2O), and 10 mM glucose to sterilized water, and the final pH of the solution was set to 7.4. After the 96-well plate to which the buffer was added was incubated under 5% CO2-95% air in a 37° C. incubator for 40 minutes, 80 μL of buffer was collected. An internal standard solution IPHC (5×10^−7 M) was added in an amount of 6 μL to the collected buffer, and the buffer was transferred to a tube for HPLC measurement and subjected to HPLC measurement. […]

[2] = system: Choline Acetyltransferase (ChAT) mRNA; experiment: Measurement of choline acetyltransferase (ChAT) mRNA expression levels in the rat septal area; format: in vivo; details: SD rat medial septum, 24 hours after administration, qPCR
Protocol: Measurement of Choline Acetyltransferase (ChAT) mRNA Expression Levels in the Rat Septal Area
(1) Compound Administration
In this study, SD male rats (Charles River Laboratories Japan, Inc.) with a body weight of about 250 to 350 g were used. The compound was dissolved in 0.01 mol/L hydrochloric acid, and orally administered.
At 24 hours after the administration of the compound, the whole brain tissue was collected under pentobarbital anesthesia. The medial septum was isolated from whole brain on ice and frozen with liquid nitrogen, and then stored at −80° C.
(3) Measurement of ChAT mRNA Expression Levels
For RNA purification, RNeasy Plus Mini Kit (#74136: QIAGEN) was used in this study. RNA purification was performed by the method described in the kit. After RNA purification, the total RNA concentration was measured by using QIAxpert Instrument (QIAGEN). cDNA was synthesized using SuperScript® VILO™ cDNA Synthesis Kit (#11754: Thermo Fisher Scientific). The synthesis of cDNA was performed by the method described in the kit. The synthesized cDNA was diluted 4 times with RNase free water, and the diluted cDNA solution was used as a sample. Taqman Universal PCR Master Mix (#4304437: Thermo Fisher Scientific), Taqman® Gene Expression Assays, INVENTORIED (#4331182: Thermo Fisher Scientific), RNase free water, and the cDNA solution were mixed in amounts of 10 μl, 1 μl, 4 μl, and 5 μl, respectively, and the resulting mixture was used as a measurement sample solution. Quantitative polymerase chain reaction (qPCR) was conducted using ABI PRISM® 7900HT (Thermo Fisher Scientific) by a fluorescence probe method. Analysis was performed by SDS 2.4 (Thermo Fisher Scientific). The results were calculated by the percentage of the amount of ChAT mRNA expression levels in the compound administration group increased from the amount of ChAT mRNA expression levels in the vehicle administration group.

CN1CCc2c(sc3nc4n(c(=O)c23)[C@H]2CCC[C@@H]2C(=O)N(C)C4)C1 [Example 6, (3aS,14aS)-5,10-dimethyl-3,3a,5,6,9,10,11,12-octahydro-H-cyclopenta[f]pyrido[4″,3″:4′,5′]thieno[2′,3′:4,5]pyrimido[1,2-a][1,4]diazepine-4,13(2H,14aH)-dione]
Concentration (μM) showing a 20% or more increase from the amount of ACh in the control group [1]: 0.03 µM
Amount (%) increased from the amount of ChAT mRNA expression levels in the vehicle administration group ([2]; oral 10 mg/kg): 32.0%

CN1CCc2c(sc3nc4n(c(=O)c23)[C@@H]2CCC[C@H]2C(=O)N(C)C4)C1 [Example 5, (3aR,14aR)-5,10-dimethyl-3,3a,5,6,9,10,11,12-octahydro-1H-cyclopenta[f]pyrido[4″,3″:4′ 5′]thieno[2′,3′:4,5]pyrimido[1,2-a][1,4]diazepine-4,13(2H,14aH)-dione]
Concentration (μM) showing a 20% or more increase from the amount of ACh in the control group [1]: 0.1 µM
Amount (%) increased from the amount of ChAT mRNA expression levels in the vehicle administration group ([2]; oral 3 mg/kg): 33.6%

CN1CCc2c(sc3nc4n(c(=O)c23)[C@@H]2CCC[C@@H]2C(=O)N(C)C4)C1 [Example 4, (3aS,14aR)-5,10-dimethyl-3,3a,5,6,9,10,11,12-octahydro-1H-cyclopenta[f]pyrido[4″,3″:4′,5′]thieno[2′,3′:4,5]pyrimido[1,2-a][1,4]diazepine-4,13(2H,14aH)-dione]
Concentration (μM) showing a 20% or more increase from the amount of ACh in the control group [1]: 0.1 µM
Amount (%) increased from the amount of ChAT mRNA expression levels in the vehicle administration group ([2]; oral 10 mg/kg): 42.4%

CN1CCc2c(sc3nc4n(c(=O)c23)-c2ccsc2C(=O)N(C)C4)C1 [Example 2, 5,10-dimethyl-5,6,9,10,11,12-hexahydropyrido[4″,3″:4′,5′]thieno[2′,3′:4,5]pyrimido[1,2-a]thieno[2,3-f][1,4]diazepine-4,13-dione]
Concentration (μM) showing a 20% or more increase from the amount of ACh in the control group [1]: 0.1 µM
Amount (%) increased from the amount of ChAT mRNA expression levels in the vehicle administration group ([2]; oral 3 mg/kg): 38.0%
